# pEC50, pIC50: −log10 of the molar value.
# Experiments:
# [1] = biological target: T1, HCV NS5B RdRp genotype 1b (Hepatitis C virus genotype 1b, UniProt Q9WMX2); test: Standard HCV NS5B RdRp enzyme assay; assay type: biochemical; details: Table 1b; HCV NS5B RdRp genotype 1b; read-out: IC50
# T1 construct: The protein was expressed with an 18 amino acid C-terminal truncation to enhance the solubility; made in house; host or cells: E. coli BL21(DE3), pET21a vector
# Summary of the method: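 C-terminally truncated (18 aa) genotype 1b NS5B from E. coli, 28 nM, with 6 nM polyA template, 180 nM biotinylated oligo-dT12 primer and 3H-UTP (0.29 μM total UTP). Hepes pH 7.5 buffer with 2% DMSO; 60 min at 30° C. EDTA stop, SPA read-out; IC50 from seven concentrations by four-parameter fit.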
# HCV replicon cells = test: HCV replicon FRET / luciferase assay (96-well plates); assay type: cell-based; details: Hepatitis C virus, Table 1b; HCV replicon; read-out: EC50
# Summary of the method: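 Replicon cells + titrated cpds, 37 °C CO2. Alamar blue for cytotoxicity, PBS rinse, then lysis reagent w/ 20 μM FRET peptide (EDANS/DABCYL), 150 mM NaCl; kinetic read ex340/em490, 20 cycles. Alt: Dual-Glo luciferase. EC50 = 50% drop in FRET/luciferase signal after background subtraction.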
# T1 sequence (Q9WMX2 2420-2992): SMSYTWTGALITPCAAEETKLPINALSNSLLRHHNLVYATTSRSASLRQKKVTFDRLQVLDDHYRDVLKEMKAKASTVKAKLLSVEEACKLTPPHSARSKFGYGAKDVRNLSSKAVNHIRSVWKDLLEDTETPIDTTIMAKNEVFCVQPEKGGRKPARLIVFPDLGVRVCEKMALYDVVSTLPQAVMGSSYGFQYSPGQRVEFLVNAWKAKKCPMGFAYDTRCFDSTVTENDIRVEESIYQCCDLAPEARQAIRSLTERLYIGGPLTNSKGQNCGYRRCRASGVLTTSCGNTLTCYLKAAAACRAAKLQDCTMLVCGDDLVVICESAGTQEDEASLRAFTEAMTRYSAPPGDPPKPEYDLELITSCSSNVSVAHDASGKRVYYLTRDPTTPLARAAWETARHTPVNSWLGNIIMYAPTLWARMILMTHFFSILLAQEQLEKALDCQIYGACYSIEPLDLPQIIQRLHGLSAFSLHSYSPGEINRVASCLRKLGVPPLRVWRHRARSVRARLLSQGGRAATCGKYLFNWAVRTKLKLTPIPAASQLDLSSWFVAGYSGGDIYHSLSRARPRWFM
structure (smiles),measurement,setting,value
CNC(=O)c1c(-c2ccc(F)cc2)oc2ccc(-c3ccc(-c4ccccc4OC)c(C(=O)NCC(C)C)c3)cc12,pIC50,[1],> 6.60
same,pEC50,HCV replicon cells,> 6.60
CNC(=O)c1c(-c2ccc(F)cc2)oc2ccc(-c3ccc(-c4cccc(/C=C/C(=O)O)c4)c(C(=O)NCC(C)C)c3)cc12,pIC50,[1],> 6.60
same,pEC50,HCV replicon cells,6.00 to 6.60
CNC(=O)c1c(-c2ccc(F)cc2)oc2ccc(-c3ccc(-c4ccc5cc[nH]c5c4)c(C(=O)NCC(C)C)c3)cc12,pIC50,[1],6.00 to 6.60
same,pEC50,HCV replicon cells,> 6.60
CNC(=O)c1c(-c2ccc(F)cc2)oc2ccc(-c3cc(OCCN(C)C)cc(C(=O)NCC(C)C)c3)cc12,pIC50,[1],6.00 to 6.60
same,pEC50,HCV replicon cells,6.00 to 6.60
CNC(=O)c1c(-c2ccc(F)cc2)oc2ccc(-c3cc(OCCc4cccnc4)cc(C(=O)NCC(C)C)c3)cc12,pIC50,[1],< 5.00
same,pEC50,HCV replicon cells,5.00 to 6.00
CNC(=O)c1c(-c2ccc(F)cc2)oc2ccc(-c3cc(C(=O)NC4(c5nnc(N)o5)CC4)ccc3C)cc12,pIC50,[1],> 6.60
same,pEC50,HCV replicon cells,> 6.60
CNC(=O)c1c(-c2ccc(F)cc2)oc2ccc(-c3cc(C(=O)NC4(c5noc(C)n5)CC4)ccc3C)cc12,pIC50,[1],> 7.70
same,pEC50,HCV replicon cells,> 6.60
CNC(=O)c1c(-c2ccc(F)cc2)oc2ccc(-c3ccc(-c4cccnc4C)c(C(=O)NCC(C)C)c3)cc12,pIC50,[1],> 6.60
same,pEC50,HCV replicon cells,> 6.60
CNC(=O)c1c(-c2ccc(F)cc2)oc2ccc(-c3ccc(-c4cncc(N)c4)c(C(=O)NCC(C)C)c3)cc12,pIC50,[1],> 6.60
same,pEC50,HCV replicon cells,6.00 to 6.60
CNC(=O)c1c(-c2ccc(F)cc2)oc2ccc(-c3ccc(-c4ccnc(N)c4)c(C(=O)NCC(C)C)c3)cc12,pIC50,[1],> 7.70
same,pEC50,HCV replicon cells,> 6.60
CNC(=O)c1c(-c2ccc(F)cc2)oc2ccc(-c3cc(C(=O)NC4(c5ccccn5)CC4)c(O)cc3Cl)cc12,pIC50,[1],> 6.60
same,pEC50,HCV replicon cells,6.00 to 6.60
CNC(=O)c1c(-c2ccc(F)cc2)oc2ccc(-c3cc(C(=O)NC4(c5cccnc5)CC4)ccc3C)cc12,pIC50,[1],> 7.70
same,pEC50,HCV replicon cells,> 6.60
CNC(=O)c1c(-c2ccc(F)cc2)oc2ccc(-c3cc(O)cc(C(=O)NCC(C)C)c3)cc12,pIC50,[1],> 6.60
same,pEC50,HCV replicon cells,6.00 to 6.60
CNC(=O)c1c(-c2ccc(F)cc2)oc2ccc(-c3cc(OCCCCN)cc(C(=O)NCC(C)C)c3)cc12,pIC50,[1],> 6.60
same,pEC50,HCV replicon cells,5.00 to 6.00
CNC(=O)c1c(-c2ccc(F)cc2)oc2ccc(-c3cc(OCCC4CCCNC4)cc(C(=O)NCC(C)C)c3)cc12 (stereo not drawn),pIC50,[1],> 6.60
same,pEC50,HCV replicon cells,> 6.60
CNC(=O)c1c(-c2ccc(F)cc2)oc2ccc(-c3cc(OCCn4ccnc4)cc(C(=O)NCC(C)C)c3)cc12,pIC50,[1],5.00 to 6.00
same,pEC50,HCV replicon cells,5.00 to 6.00
CNC(=O)c1c(-c2ccc(F)cc2)oc2ccc(-c3cc(OCCc4ccncc4)cc(C(=O)NCC(C)C)c3)cc12,pIC50,[1],> 6.60
same,pEC50,HCV replicon cells,< 6.30
C#CCOc1cc(C(=O)NCC(C)C)cc(-c2ccc3oc(-c4ccc(F)cc4)c(C(=O)NC)c3c2)c1,pIC50,[1],5.00 to 6.00
same,pEC50,HCV replicon cells,5.00 to 6.00
CNC(=O)c1c(-c2ccc(F)cc2)oc2ccc(-c3cc(OCC4CC4)cc(C(=O)NCC(C)C)c3)cc12,pIC50,[1],< 5.00
same,pEC50,HCV replicon cells,6.00 to 6.60
CNC(=O)c1c(-c2ccc(F)cc2)oc2ccc(-c3cc(OCc4cccnc4)cc(C(=O)NCC(C)C)c3)cc12,pIC50,[1],5.00 to 6.00
same,pEC50,HCV replicon cells,5.00 to 6.00
CNC(=O)c1c(-c2ccc(F)cc2)oc2ccc(-c3cc(OCc4ccoc4)cc(C(=O)NCC(C)C)c3)cc12,pIC50,[1],5.00 to 6.00
same,pEC50,HCV replicon cells,5.00 to 6.00
CNC(=O)c1c(-c2ccc(F)cc2)oc2ccc(-c3cc(OCCC4CCNCC4)cc(C(=O)NCC(C)C)c3)cc12,pIC50,[1],> 6.60
same,pEC50,HCV replicon cells,5.00 to 6.00
CCCOc1cc(C(=O)NCC(C)C)cc(-c2ccc3oc(-c4ccc(F)cc4)c(C(=O)NC)c3c2)c1,pIC50,[1],< 5.00
same,pEC50,HCV replicon cells,5.00 to 6.00
CCOc1cc(C(=O)NCC(C)C)cc(-c2ccc3oc(-c4ccc(F)cc4)c(C(=O)NC)c3c2)c1,pIC50,[1],< 6.30
same,pEC50,HCV replicon cells,5.00 to 6.00
CNC(=O)c1c(-c2ccc(F)cc2)oc2ccc(-c3cc(OCCOC)cc(C(=O)NCC(C)C)c3)cc12,pIC50,[1],< 6.30
same,pEC50,HCV replicon cells,5.00 to 6.00
CNC(=O)c1c(-c2ccc(F)cc2)oc2ccc(-c3cc(OCCn4ccnc4C)cc(C(=O)NCC(C)C)c3)cc12,pIC50,[1],5.00 to 6.00
same,pEC50,HCV replicon cells,5.00 to 6.00
CNC(=O)c1c(-c2ccc(F)cc2)oc2ccc(-c3cc(OC[C@@H]4CCCN4)cc(C(=O)NCC(C)C)c3)cc12,pIC50,[1],5.00 to 6.00
same,pEC50,HCV replicon cells,5.00 to 6.00
CNC(=O)c1c(-c2ccc(F)cc2)oc2ccc(-c3cc(OCc4cc(C)on4)cc(C(=O)NCC(C)C)c3)cc12,pIC50,[1],< 5.86
same,pEC50,HCV replicon cells,5.00 to 6.00
CNC(=O)c1c(-c2ccc(F)cc2)oc2ccc(-c3cc(OCc4ccco4)cc(C(=O)NCC(C)C)c3)cc12,pIC50,[1],5.00 to 6.00
same,pEC50,HCV replicon cells,5.00 to 6.00
CNC(=O)c1c(-c2ccc(F)cc2)oc2ccc(-c3cc(OCC4CCC4)cc(C(=O)NCC(C)C)c3)cc12,pIC50,[1],< 5.00
same,pEC50,HCV replicon cells,5.00 to 6.00
CNC(=O)c1c(-c2ccc(F)cc2)oc2ccc(-c3cc(OCc4nnc(C)o4)cc(C(=O)NCC(C)C)c3)cc12,pIC50,[1],> 6.60
same,pEC50,HCV replicon cells,5.00 to 6.00
CNC(=O)c1c(-c2ccc(F)cc2)oc2ccc(-c3cc(OCCn4cncn4)cc(C(=O)NCC(C)C)c3)cc12,pIC50,[1],6.00 to 6.60
same,pEC50,HCV replicon cells,5.00 to 6.00
CNC(=O)c1c(-c2ccc(F)cc2)oc2ccc(-c3cc(OCC#N)cc(C(=O)NCC(C)C)c3)cc12,pIC50,[1],> 6.60
same,pEC50,HCV replicon cells,> 6.60
CNC(=O)c1c(-c2ccc(F)cc2)oc2ccc(-c3cccc(C(=O)NC4(c5ccccn5)CC4)c3F)cc12,pIC50,[1],> 6.60
same,pEC50,HCV replicon cells,> 6.60
CNC(=O)c1c(-c2ccc(F)cc2)oc2ccc(-c3cc(C(=O)NC4(c5ccccn5)CC4)ccc3C(F)(F)F)cc12,pIC50,[1],> 6.60
same,pEC50,HCV replicon cells,> 6.60
CNC(=O)c1c(-c2ccc(F)cc2)oc2ccc(-c3cc(C(=O)NC4(c5ccccc5)CC4)ccc3OCCN(C)C)cc12,pIC50,[1],> 6.60
same,pEC50,HCV replicon cells,> 6.60
CNC(=O)c1c(-c2ccc(F)cc2)oc2ccc(-c3cc(C(=O)NC4(c5ccccc5)CC4)ccc3OCCO)cc12,pIC50,[1],> 6.60
same,pEC50,HCV replicon cells,> 6.60
CNC(=O)c1c(-c2ccc(F)cc2)oc2ccc(-c3cc(C(=O)NC4(c5ccccc5)CC4)ccc3OCC(N)=O)cc12,pIC50,[1],> 6.60
same,pEC50,HCV replicon cells,> 6.60
CNC(=O)c1c(-c2ccc(F)cc2)oc2ccc(-c3cc(C(=O)NC4(c5ccccc5)CC4)ccc3OCCN)cc12,pIC50,[1],> 6.60
same,pEC50,HCV replicon cells,> 6.60
CNC(=O)c1c(-c2ccc(F)cc2)oc2ccc(-c3cc(C(=O)NC4(c5ccccn5)CC4)ccc3OC)cc12,pIC50,[1],> 6.60
same,pEC50,HCV replicon cells,> 6.60
CNC(=O)c1c(-c2ccc(F)cc2)oc2ccc(-c3cc(F)cc(C(=O)NC4(c5ccccn5)CC4)c3)cc12,pIC50,[1],> 6.60
same,pEC50,HCV replicon cells,> 6.60
CNC(=O)c1c(-c2ccc(F)cc2)oc2ccc(-c3cc(C(=O)NC4(c5ccccn5)CC4)c(OC)cc3OC)cc12,pIC50,[1],> 6.60
same,pEC50,HCV replicon cells,> 6.60
CNC(=O)c1c(-c2ccc(F)cc2)oc2ccc(-c3ccc(Cl)c(C(=O)NC4(c5ccccn5)CC4)c3)cc12,pIC50,[1],6.00 to 6.60
same,pEC50,HCV replicon cells,< 5.00
CNC(=O)c1c(-c2ccc(F)cc2)oc2ccc(-c3cc(C(=O)NC4(c5ccccn5)CC4)ccc3OCC(N)=O)cc12,pIC50,[1],> 6.60
same,pEC50,HCV replicon cells,> 6.60
CNC(=O)c1c(-c2ccc(F)cc2)oc2ccc(-c3cc(C(=O)NC4(c5ccccn5)CC4)ccc3OCCN(C)C)cc12,pIC50,[1],> 6.60
same,pEC50,HCV replicon cells,> 6.60
CNC(=O)c1c(-c2ccc(F)cc2)oc2ccc(-c3cc(C(=O)NC4(c5nnc(-c6cccnc6)[nH]5)CC4)ccc3C)cc12,pIC50,[1],> 6.60
same,pEC50,HCV replicon cells,> 6.60
CNC(=O)c1c(-c2ccc(F)cc2)oc2ccc(-c3cc(C(=O)NC4(c5nnc(-c6ccncc6)[nH]5)CC4)ccc3C)cc12,pIC50,[1],> 6.60
same,pEC50,HCV replicon cells,> 6.60
CNC(=O)c1c(-c2ccc(F)cc2)oc2ccc(-c3cc(C(=O)NC4(c5nnc(-c6ccccc6Cl)[nH]5)CC4)ccc3C)cc12,pIC50,[1],> 6.60
same,pEC50,HCV replicon cells,> 6.60
CNC(=O)c1c(-c2ccc(F)cc2)oc2ccc(-c3cc(C(=O)NC4(c5nnc(-c6cccc(OC)c6)[nH]5)CC4)ccc3C)cc12,pIC50,[1],> 6.60
same,pEC50,HCV replicon cells,> 6.60
CNC(=O)c1c(-c2ccc(F)cc2)oc2ccc(-c3cc(C(=O)NC4(c5nnc(-c6cccc(Cl)c6)[nH]5)CC4)ccc3C)cc12,pIC50,[1],> 6.60
same,pEC50,HCV replicon cells,> 6.60
CNC(=O)c1c(-c2ccc(F)cc2)oc2ccc(-c3cc(C(=O)NC4(c5nnc(-c6ccc(Cl)cc6)[nH]5)CC4)ccc3C)cc12,pIC50,[1],6.00 to 6.60
same,pEC50,HCV replicon cells,> 6.60

# Reference: patent US8309558B2, “Compounds for the treatment of hepatitis C” (Bristol-Myers Squibb Company, priority 2008, dated 2012)
